Experiment [1] relates to Trypanosoma cruzi. The experiment in a line: 50% inhibitory concentration against the growth of Trypanosoma cruzi (Epimastigotes). It counts as functional, organism-based.
The subject of experiment [2] is Trypanosoma cruzi. The experiment in a line: 50% inhibitory concentration against the growth of intracellular Trypanosoma cruzi. In kind it is functional, organism-based.
The test system of experiment [3] is Trypanosoma cruzi. The experiment in a line: 90% inhibitory concentration against the growth of Trypanosoma cruzi (Epimastigotes). In kind it is functional.

Consider `N#CSCCOc1ccc(Oc2ccccc2)cc1I`, for which the IC50 (in general, the concentration at which inhibition is half-maximal) is 1.8 µM with Trypanosoma cruzi [1] and greater than 100 µM in the experiment on Trypanosoma cruzi [2]. Besides, in the experiment with Trypanosoma cruzi [3], the IC90 (usually the concentration needed for an effect of 90%) was 23 µM.
As for `Brc1cccc(Oc2ccc(OCCOC3CCCCO3)cc2)c1` (stereo not drawn), the IC50 in the experiment with Trypanosoma cruzi [1] is 138 µM.
The same measure, in the same setting: the same measure for `N#CSCCOc1ccc(Oc2cccc(Br)c2)cc1`: 2.9 µM; for `O=c1c2ccccc2oc2ccc(OCCOC3CCCCO3)cc12` (stereo not drawn): greater than 60 µM; for `CC(=O)N(CCSC#N)c1ccc(Oc2ccccc2)cc1`: 14.4 µM.
For the compound `N#CSCCOc1ccc(Cl)cc1`, the midpoint of inhibition with Trypanosoma cruzi [1], the IC50, lay at 14.1 µM.
In the case of `N#CSCCOc1ccc(Oc2ccccc2)cc1Cl`, the IC50 with Trypanosoma cruzi [1] stood at 24.5 µM.
In the case of `Cc1cccc(C)c1Oc1ccc(OCCOC2CCCCO2)cc1` (stereo not drawn), the IC50 in the experiment on Trypanosoma cruzi [1] is greater than 60 µM.
In the case of `Cc1ccccc1Oc1ccc(OCCOC2CCCCO2)cc1` (stereo not drawn), 143 µM corresponded to half-maximal inhibition with Trypanosoma cruzi [1] (IC50).
Same read-out and setting: next, `c1ccc(Oc2ccc(SCCOC3CCCCO3)cc2)cc1` (stereo not drawn): 291 µM.
On to `N#CSCCOc1ccc(Oc2ccccc2)cc1Br`, for which the figures for the IC50 in the experiment with Trypanosoma cruzi [1] and in the experiment with Trypanosoma cruzi [2] were 1.4 µM and 64.5 µM, respectively. The IC90 in the experiment on Trypanosoma cruzi [3] turned out to be 18 µM.
`c1ccc(Oc2ccc(COC3CCCCO3)cc2)cc1` (stereo not drawn) displayed an IC50 in the experiment on Trypanosoma cruzi [1] of 102 µM.
On the same count and under the same terms, the same measure for `Ic1cc(Oc2ccccc2)ccc1OCCOC1CCCCO1` (stereo not drawn): 45 µM; for `C[C@H](COc1ccc(Oc2ccccc2)cc1)SC#N`: greater than 82 µM.
Same read-out and setting: the same measure for `Brc1cccc(OCCOC2CCCCO2)c1` (stereo not drawn): 104 µM; for `Clc1ccc(OCCOC2CCCCO2)cc1` (stereo not drawn): greater than 390 µM.
Same read-out and setting: the same measure for `N#CSCCNc1ccc(Oc2ccccc2)cc1`: 141 µM.
Turning to `N#CSCCOc1cccc(Br)c1`, the IC50 in the experiment with Trypanosoma cruzi [1] is less than 4 µM. This compound came in with an IC90 in the experiment on Trypanosoma cruzi [3] of 27 µM.
Take `C[C@@H](COc1ccc(Oc2ccccc2)cc1)SC#N`: the midpoint of inhibition in the experiment on Trypanosoma cruzi [1], the IC50, lay at 25 µM.
Same read-out and setting: next, `CC(=O)N(CCOC1CCCCO1)c1ccc(Oc2ccccc2)cc1` (stereo not drawn): 211 µM.
On the same count and under the same terms, next, `N#CSCc1ccc(Oc2ccccc2)cc1`: 18.7 µM.
For the compound `Cc1ccccc1Oc1ccc(OCCSC#N)cc1`, the IC50 was found to be 2.7 µM in the experiment on Trypanosoma cruzi [1] and 41.7 µM in the experiment on Trypanosoma cruzi [2]. The same compound registered an IC90 in the experiment on Trypanosoma cruzi [3] of 3.5 µM.
For `N#CSCCOc1ccc2oc3ccccc3c(=O)c2c1`, the IC50 with Trypanosoma cruzi [1] is 54 µM.
Take `N#CSCCSc1ccc(Oc2ccccc2)cc1`: the IC50 in the experiment with Trypanosoma cruzi [1] was 0.87 µM. In the experiment on Trypanosoma cruzi [3], this compound gave an IC90 of 32 µM.
In the experiment with Trypanosoma cruzi [2], `N#CSCCOc1ccc(Oc2ccccc2)cc1` had an IC50 of 16 µM. The same compound came in with an IC90 in the experiment with Trypanosoma cruzi [3] of 3.5 µM.
Turning to `N#CSCCOc1ccc(Cl)cc1Cl`, the IC50 is 1 µM in the experiment on Trypanosoma cruzi [1] and greater than 100 µM with Trypanosoma cruzi [2]. In the experiment with Trypanosoma cruzi [3], this compound had an IC90 of 30 µM.
In turn, `CC(=O)N(CCO)c1ccc(Oc2ccccc2)cc1` registered an IC50 in the experiment on Trypanosoma cruzi [1] of 277 µM.

The values are drawn from ChEMBL document CHEMBL1132935, “Design and synthesis of aryloxyethyl thiocyanate derivatives as potent inhibitors of Trypanosoma cruzi proliferation” (J Med Chem, 2000).
